Experimental data as given in patent US20040248991A1, “Compositions for lessening oxidative stress” (priority 2001, published 2004).

Key:
[1] = test system: rats; conditions: continuous administration, 1200 mg/kg/day for 52 weeks; cited from earlier work
[2] = test system: spleen tissues of GK rats; assay: Tissue protecting effect on spontaneously diabetic rat (histopathological evaluation of spleen tissue denaturation); format: in vivo; conditions: oral administration for 7 weeks, spleen histopathology, four examples per group
Method: The protective effect of each of oxidized coenzyme Q10 and reduced coenzyme Q10 (containing about 2% by weight of oxidized coenzyme Q10) on denaturation of the spleen tissues of GK rats by using the same test system as in Example 1. As a control, a soybean oil solution not containing coenzyme Q10 was orally administered. After the coenzyme Q10 was administered for 7 weeks, the spleen was extracted from each rat, and the degree of tissue denaturation was histopathologically evaluated.
The tissue protecting effect of vitamin E was evaluated by the same method as in Example 4.

[3] = test system: urinary 8OH-dG; assay: Oxidative stress lessening effect on spontaneously diabetic rat (urinary 8OH-dG); format: in vivo; conditions: GK rats, 0.1% by weight in feed
Method: (§1) The effect of lessening oxidative stress in vivo was evaluated with urinary 8-hydroxydeoxyguanosine (8OH-dG) having high effectiveness as an oxidative stress marker. This material results from nucleic acid damage due to oxidative stress, and is discharged into urine without undergoing further metabolism. It is thus thought that the amount of oxidative stress in vivo and the amount of 8OH-dG discharged have a close relationship therebetween. A decrease in amount of the material in urine means a reduction in oxidative stress in vivo and the prevention of damage to nucleic acid.
The oxidative stress lessening effect of each of reduced and oxidized coenzyme Q10 in vivo was evaluated by using GK rats with spontaneous diabetes which induced spleen tissue denaturation due to oxidative stress in vivo. A feed (CE-2, produced by CLEA JAPAN, INC.) containing 0.1% by weight of reduced coenzyme Q10 (containing about 2% by weight of oxidized coenzyme Q10) or oxidized coenzyme Q10 was freely given to GK rats (5-week old, male, n=4 in each group). In a control group, the feeds not containing coenzyme Q10 was freely given to the rats. 2 weeks and 4 weeks after, urine was collected, and the amount of urinary 8OH-dG was determined by the same method as in Example 1. […] In the oxidized coenzyme Q10 administration group, the amount of urinary 8OH-dG measured 2 weeks after the administration was decreased to 58% of the control group, and the amount of urinary 8OH-dG measured 4 weeks after the administration was deceased to 52% of the control group.
The oxidative stress lessening effect of a typical antioxidant, vitamin E, was evaluated by using GK rats in the same test system as in Example 2. Like coenzyme Q10, vitamin E was mixed with a feed at a ratio of 0.1% by weight, and the resulting foodstuff was freely given to the GK rats. 2 weeks and 4 weeks after the feeding, the amount of urinary 8OH-dG was determined. […] In comparison to the coenzyme Q10 administration group of Example 2, 2 weeks after, the decreasing effect in Reference Example 1 was lower the effects of both the reduced form and the oxidized form in Example 2, and 4 weeks after, the effect was at the same level as that of the oxidized coenzyme Q10 and lower than that of the reduced coenzyme Q10 in Example 2.

[4] = test system: urinary 8OH-dG; assay: Oxidative stress lessening effect on normal rat (urinary 8OH-dG by ELISA); format: in vivo; conditions: SD rats, oral soybean oil solution, 100 mg/kg/day for 4 weeks
Method: as §1
A soybean oil solution of oxidized coenzyme Q10 or reduced coenzyme Q10 (containing about 2% of oxidized coenzyme Q10) was orally administered to SD rats (6-week old, male) in a dose of 100 mg/kg/day for 4 weeks. 4 weeks after, urine was collected, and the amount of urinary 8OH-dG was determined by an ELISA kit (Japan Institute for the Control of Aging).

[5] = cited from earlier work
[6] = test system: urinary 8OH-dG; assay: Oxidative stress lessening effect on spontaneously diabetic mouse (urinary 8OH-dG); format: in vivo; conditions: KK-Ay mice, 4 weeks
Method: as §1
The dose dependency of the oxidative stress lessening effect of each of reduced and oxidized coenzyme Q10 was evaluated by the same method as that used for GK rats except that KK-Ay mice with spontaneous diabetes and having a higher blood sugar level than that of GK rats were used. KK-Ay 5-week old male mice were used, and evaluated in groups in each of which n=11. Oxidized coenzyme Q10 or reduced coenzyme Q10 (containing about 2% by weight of oxidized coenzyme Q10) was mixed with a purified feed (produced by CLEA JAPAN, INC.) at each of ratios of 0.02% by weight, 0.1% by weight, and 0.5% by weight, and each mixture was freely given to the KK-Ay mice. In a control group, the purified feed not containing coenzyme Q10 was freely given to rats. 4 weeks after the supply, urine was collected, and the amount of urinary 8OH-dG was determined by the same method as in Example 1. […] In the reduced coenzyme Q10 administration group, with a dose of 0.02% by weight, the lessening effect was low (82% of the control group), while with a dose of 0.1% by weight or more, the lessening effect was significant (dose of 0.1% by weight: 73% of the control group, dose of 0.5% by weight: 56% of the control group). In the oxidized coenzyme Q10 administration group, the dose-dependent lessening effect was observed without showing a significant difference, and with a dose of 0.5% by weight, the amount of urinary 8OH-dG was 78% of that of the control group.

[7] = test system: kidney dialysis patients; conditions: daily dose of 800 IU; cited from earlier work
[8] = listed as Oxidized coenzyme Q10
[9] = 2 weeks after the administration
[10] = 4 weeks after the administration

| Compound | toxic effect in chronic toxicity test [1] | Number of examples with finding: Islet fibrillation 1+ [2] | Number of examples with finding: Islet fibrillation 2+ [2] | Number of examples with finding: Normal [2] | Number of examples with finding: Islet fibrillation 1+ [2, 8] | Number of examples with finding: Islet fibrillation 2+ [2, 8] | amount of urinary 8OH-dG relative to control group (assumed as 100%) [3, 9] | amount of urinary 8OH-dG relative to control group (assumed as 100%) [3, 10] | amount of urinary 8OH-dG relative to solvent control group (assumed as 100%) [4] | antioxidative activity in vitro [5] | amount of urinary 8OH-dG relative to control group ([6]; 0.5% by weight in feed) [%] | Number of examples with finding: Islet fibrillation 1+ ([2]; listed as Reduced coenzyme Q10) | Number of examples with finding: Islet fibrillation 2+ ([2]; listed as Reduced coenzyme Q10) | amount of urinary 8OH-dG relative to control group ([6]; 0.02% by weight in feed) [%] | amount of urinary 8OH-dG relative to control group ([6]; 0.1% by weight in feed) [%] | Number of examples with finding: Islet fibrillation 1+ ([2]; listed as VE) | Number of examples with finding: Islet fibrillation 2+ ([2]; listed as VE) | increase of risk of brain hemorrhage as a side effect [7] [%] | patients died from hemorrhagic diseases [7] |
| --- | --- | --- | --- | --- | --- | --- | --- | --- | --- | --- | --- | --- | --- | --- | --- | --- | --- | --- | --- |
| COC1=C(OC)C(=O)C(C/C=C(\C)CC/C=C(\C)CC/C=C(\C)CC/C=C(\C)CC/C=C(\C)CC/C=C(\C)CC/C=C(\C)CC/C=C(\C)CC/C=C(\C)CCC=C(C)C)=C(C)C1=O [coenzyme Q10] | no toxic effect was observed |  |  |  |  |  |  |  |  |  |  |  |  |  |  |  |  |  |  |
| COC1=C(OC)C(=O)C(C/C=C(\C)CC/C=C(\C)CC/C=C(\C)CC/C=C(\C)CC/C=C(\C)CC/C=C(\C)CC/C=C(\C)CC/C=C(\C)CC/C=C(\C)CCC=C(C)C)=C(C)C1=O [oxidized coenzyme Q10] |  | two | two | 0 | 2 | 2 | 58% | 52% | about 60% | exhibits no antioxidative activity | 78 |  |  |  |  |  |  |  |  |
| COc1c(O)c(C)c(C/C=C(\C)CC/C=C(\C)CC/C=C(\C)CC/C=C(\C)CC/C=C(\C)CC/C=C(\C)CC/C=C(\C)CC/C=C(\C)CC/C=C(\C)CCC=C(C)C)c(O)c1OC [reduced coenzyme Q10] |  | tree | one | 0 |  |  | about 40% | kept at the same level | about 40% | exhibits antioxidative activity in vitro | 56 | 3 | 1 | 82 | 73 |  |  |  |  |
| vitamin E [reference compound] |  | two | two | 0 |  |  | about 80% | 51% |  |  |  |  |  |  |  | 2 | 2 | 63 | two |
